For 25 molecules, EC50 results are on record in patent publication US20170121344A1 (Siga Technologies, Inc., priority 2009, published 2017).

Structures are written as SMILES. Where a name gives a salt, the structure may show the parent alone. Read-outs that look alike come from different tables or passages of the source.

The test system of the test is Dengue-2 (Strain New Guinea C). Kind of test: Viral yield assay against Dengue-2 in Vero cells. The class given is cell-based, Dengue virus. Conditions: Dengue virus, read-out: Activity (EC50 class) against Dengue-2 Virus in Vero cells. The gist of the method:
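Progeny virus from compound-treated Vero monolayers infected at an MOI of 0.1 is collected after 48 h at 37° C and titered on Vero cells. DMSO serves as control.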

[1] abbreviates: Vero cells, MOI 0.1, harvested 48 hours post infection.

In general, EC50 refers to the concentration giving half of the maximal effect. Regarding `CCc1nc2sc(C(=O)Nc3cccc(C(F)(F)F)c3)c(N)c2cc1C` [Compound 93, 3-Amino-6-ethyl-5-methyl-thieno[2,3-b]pyridine-2-carboxylic acid (3-trifluoromethyl-phenyl)-amide], the EC50 under setting [1] lay within 5 to 25 µM.
Still for that read-out and setting: then `Cc1cc(C)c(NC(=O)c2sc3nc4c(cc3c2N)C(=O)CCC4)c(C)c1` [Compound 94, 3-Amino-5-oxo-5,6,7,8-tetrahydro-thieno[2,3-b]quinoline-2-carboxylic acid (2,4,6-trimethyl-phenyl)-amide], with 5 to 25 µM.
`CC1(C)CC(=O)c2cc3c(N)c(C(=O)NCc4ccco4)sc3nc2C1` [Compound 95, 3-Amino-7,7-dimethyl-5-oxo-5,6,7,8-tetrahydro-thieno[2,3-b]quinoline-2-carboxylic acid (furan-2-ylmethyl)-amide]: the EC50 (Vero, 48 h) fell in the range of 5 to 25 µM.
Consider `C=CCc1c(C)nc2sc(C(=O)Nc3cccc(Cl)c3)c(N)c2c1C` [Compound 96, 5-Allyl-3-amino-4,6-dimethyl-thieno[2,3-b]pyridine-2-carboxylic acid (3-chloro-phenyl)-amide], for which the EC50 under setting [1] is 5 to 25 µM.
Still for that read-out and setting: with `COCc1cc(C)nc2sc(C(=O)Nc3cccc(Cl)c3)c(N)c12` [Compound 97, 3-Amino-4-methoxymethyl-6-methyl-thieno[2,3-b]pyridine-2-carboxylic acid (3-chloro-phenyl)-amide] the figure was 5 to 25 µM.
In the case of `COCc1cc(C)nc2sc(C(=O)Nc3cccc(C(F)(F)F)c3)c(N)c12` [Compound 98, 3-Amino-4-methoxymethyl-6-methyl-thieno[2,3-b]pyridine-2-carboxylic acid (3-trifluoromethyl-phenyl)-amide], the concentration giving a half-maximal response (EC50) (Vero, 48 h) fell in the range of 5 to 25 µM.
Still for that read-out and setting: then `NC(=O)c1sc2nc3c(c(-c4ccco4)c2c1N)CCC3` [Compound 99, 3-Amino-4-furan-2-yl-6,7-dihydro-5H-cyclopenta[b]thieno[3,2-e]pyridine-2-carboxylic acid amide], with 5 to 25 µM.
Take `Cc1ccccc1-n1cnc2c(sc3nc(N4CCOCC4)c4c(c32)CC(C)(C)OC4)c1=O` [Compound 100, 2,2-Dimethyl-5-morpholin-4-yl-9-o-tolyl-1,4-dihydro-2H,9H-3-oxa-7-thia-6,9,11-triaza-benzo[c]fluoren-8-one]: under setting [1], the EC50 is 5 to 25 µM.
Same read-out and setting: with `COc1ccc(-c2ccc3c(N)c(C(=O)NC(C)C)sc3n2)cc1` [Compound 101, 3-Amino-6-(4-methoxy-phenyl)-thieno[2,3-b]pyridine-2-carboxylic acid isopropylamide] the figure was 5 to 25 µM.
Still for that read-out and setting: then `CCN(C(=O)c1sc2nc(C)cc(C)c2c1N)c1ccccc1` [Compound 102, 3-Amino-4,6-dimethyl-thieno[2,3-b]pyridine-2-carboxylic acid ethyl-phenyl-amide], with 5 to 25 µM; and `Cc1cc(NC(=O)c2sc3nc4c(c(-c5cccs5)c3c2N)CN(C)CC4)no1` [Compound 103, 3-Amino-6-methyl-4-thiophen-2-yl-5,6,7,8-tetrahydro-thieno[2,3-b][1,6]naphthyridine-2-carboxylic acid (5-methyl-isoxazol-3-yl)amide], with 5 to 25 µM; and `Cc1ccc(NC(=O)c2sc3nc4c(cc3c2N)CN(C)CC4)c(F)c1` [Compound 104, 3-Amino-6-methyl-5,6,7,8-tetrahydro-thieno[2,3-b][1,6]naphthyridine-2-carboxylic acid (2-fluoro-4-methyl-phenyl)-amide], with 5 to 25 µM.
`CN1CCc2nc3sc(C(=O)NC4CC4)c(N)c3cc2C1` [Compound 105, 3-Amino-6-methyl-5,6,7,8-tetrahydro-thieno[2,3-b][1,6]naphthyridine-2-carboxylic acid cyclopropylamide]: the EC50 (Vero, 48 h) was 5 to 25 µM.
Same read-out and setting: with `CN1CCc2nc3sc(C(=O)NCc4ccccc4)c(N)c3cc2C1` [Compound 106, 3-Amino-6-methyl-5,6,7,8-tetrahydro-thieno[2,3-b][1,6]naphthyridine-2-carboxylic acid benzylamide] the figure was 5 to 25 µM.
On to `CN1CCc2nc3sc(C(=O)NC(C)(C)C)c(N)c3cc2C1` [Compound 107, 3-Amino-6-methyl-5,6,7,8-tetrahydro-thieno[2,3-b][1,6]naphthyridine-2-carboxylic acid tart-butylamide], for which the concentration for a half-maximal effect (EC50) (Vero, 48 h) lay within 5 to 25 µM.
As for `CCOc1cccc(NC(=O)c2sc3nc4c(cc3c2N)CN(C)CC4)c1` [Compound 108, 3-Amino-6-methyl-5,6,7,8-tetrahydro-thieno[2,3-b][1,6]naphthyridine-2-carboxylic acid (3-ethoxy-phenyl)-amide], under setting [1], the 50% effective concentration (EC50) lay in the range of 5 to 25 µM.
Still for that read-out and setting: then `CN1CCc2nc3sc(C(=O)Nc4c(Cl)cccc4Cl)c(N)c3cc2C1` [Compound 109, 3-Amino-6-methyl-5,6,7,8-tetrahydro-thieno[2,3-b][1,6]naphthyridine-2-carboxylic acid (2,6-dichloro-phenyl)-amide], with 5 to 25 µM; and `CN1CCc2nc3sc(C(=O)Nc4ccc(F)c(Cl)c4)c(N)c3cc2C1` [Compound 110, 3-Amino-6-methyl-5,6,7,8-tetrahydro-thieno[2,3-b][1,6]naphthyridine-2-carboxylic acid (3-chloro-4-fluoro-phenyl)-amide], with 5 to 25 µM.
Turning to `CN1CCc2nc3sc(C(=O)Nc4ccc(F)cc4F)c(N)c3cc2C1` [Compound 111, 3-Amino-6-methyl-5,6,7,8-tetrahydro-thieno[2,3-b][1,6]naphthyridine-2-carboxylic acid (2,4-difluoro-phenyl)-amide], under setting [1], the EC50 fell in the range of 5 to 25 µM.
`CN1CCc2nc3sc(C(=O)Nc4cccc(C#N)c4)c(N)c3cc2C1` [Compound 112, 3-Amino-6-methyl-5,6,7,8-tetrahydro-thieno[2,3-b][1,6]naphthyridine-2-carboxylic acid (3-cyano-phenyl)-amide]: the half-maximal effective concentration (EC50) under setting [1] is 5 to 25 µM.
On the same count and under the same terms, with `CN1CCc2nc3sc(C(=O)NCc4ccccc4Cl)c(N)c3cc2C1` [Compound 113, 3-Amino-6-methyl-5,6,7,8-tetrahydro-thieno[2,3-b][1,6]naphthyridine-2-carboxylic acid 2-chloro-benzylamide] the figure was 5 to 25 µM; with `Cc1sc(NC(=O)c2sc3nc4c(cc3c2N)CN(C)CC4)c(C#N)c1C` [Compound 114, 3-Amino-6-methyl-5,6,7,8-tetrahydro-thieno[2,3-b][1,6]naphthyridine-2-carboxylic acid (3-cyano-4,5-dimethyl-thiophen-2-yl)-amide], 5 to 25 µM.
For `Nc1c(C(=O)Nc2nnc(-c3ccccc3)s2)sc2nc3c(cc12)CCNCC3` [Compound 115, 3-Amino-6,7,8,9-tetrahydro-5H-1-thia-7,10-diaza-cyclohepta[f]indene-2-carboxylic acid (5-phenyl-[1,3,4]thiadiazol-2-yl)-amide hydrochloride], the 50% effective concentration (EC50) under setting [1] is 5 to 25 µM.
Regarding `Nc1c(C(=O)Nc2ccc(F)cc2)sc2nc3c(cc12)CCCCC3` [Compound 116, 3-Amino-6,7,8,9-tetrahydro-5H-1-thia-10-aza-cyclohepta[f]indene-2-carboxylic acid (4-fluoro-phenyl)-amide], the concentration giving a half-maximal response (EC50) (Vero, 48 h) is above 25 µM.
In the case of `Cc1cccc(NC(=O)c2sc3nc4c(cc3c2N)CCCCC4)c1` [Compound 117, 3-Amino-6,7,8,9-tetrahydro-5H-1-thia-10-aza-cyclohepta[f]indene-2-carboxylic acid m-tolylamide], under setting [1], the EC50 was above 25 µM.
